Experimental data published in patent US6716833B2, “Acetylenic α-amino acid-based sulfonamide hydroxamic acid tace inhibitors” (priority 1999, dated 2004).
pIC50: −log10 of the molar value. Where a name gives a salt, the structure may show the parent alone. Read-outs that look alike come from different tables or passages of the source.

Assays:
Format in all cases: biochemical
MMP-1 = molecular target: T1, MMP-1 (Homo sapiens, UniProt P03956); assay: MMP-1 inhibition (thiopeptide or fluorescent peptide substrate); conditions: read-out: MMP-1 IC50
T1 sequence (P03956 100-469): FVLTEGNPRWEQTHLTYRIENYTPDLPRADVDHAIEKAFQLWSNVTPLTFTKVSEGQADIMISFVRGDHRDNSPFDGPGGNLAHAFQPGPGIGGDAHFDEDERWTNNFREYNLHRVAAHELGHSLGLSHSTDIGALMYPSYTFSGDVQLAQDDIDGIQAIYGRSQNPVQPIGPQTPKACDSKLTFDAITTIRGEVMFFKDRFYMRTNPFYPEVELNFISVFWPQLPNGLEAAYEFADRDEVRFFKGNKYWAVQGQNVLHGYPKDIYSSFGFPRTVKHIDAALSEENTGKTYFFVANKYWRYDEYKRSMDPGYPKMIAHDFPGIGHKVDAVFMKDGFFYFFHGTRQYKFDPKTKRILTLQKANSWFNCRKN

MMP-9 = MMP-9 (Homo sapiens, UniProt P14780); assay: MMP-9 inhibition (thiopeptide or fluorescent peptide substrate); conditions: read-out: MMP-9 IC50
MMP-9, sequence (P14780 94-707): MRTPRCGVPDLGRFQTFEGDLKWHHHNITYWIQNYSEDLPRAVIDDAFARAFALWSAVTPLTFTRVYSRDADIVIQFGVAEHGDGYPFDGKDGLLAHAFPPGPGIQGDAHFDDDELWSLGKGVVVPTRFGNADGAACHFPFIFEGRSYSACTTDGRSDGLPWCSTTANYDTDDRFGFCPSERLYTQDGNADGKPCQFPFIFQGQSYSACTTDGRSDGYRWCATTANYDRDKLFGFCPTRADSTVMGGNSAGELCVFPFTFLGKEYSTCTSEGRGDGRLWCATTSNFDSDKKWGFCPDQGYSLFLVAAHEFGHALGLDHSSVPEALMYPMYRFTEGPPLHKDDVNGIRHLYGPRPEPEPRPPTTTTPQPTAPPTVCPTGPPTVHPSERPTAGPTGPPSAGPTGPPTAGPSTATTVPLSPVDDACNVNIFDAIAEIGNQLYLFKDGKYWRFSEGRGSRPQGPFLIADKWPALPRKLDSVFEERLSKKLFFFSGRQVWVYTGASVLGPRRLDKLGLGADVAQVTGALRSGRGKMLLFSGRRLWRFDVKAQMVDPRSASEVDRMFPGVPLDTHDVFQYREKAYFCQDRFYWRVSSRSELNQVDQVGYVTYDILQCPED

MMP-13 = MMP-13 (Homo sapiens, UniProt P45452); assay: MMP-13 inhibition (thiopeptide or fluorescent peptide substrate)
[1] = molecular target: TNF-α converting enzyme (TACE) (Homo sapiens, UniProt P78536); assay: TACE inhibition (fluorescent peptidyl substrate); conditions: read-out: TACE IC50
TNF-α converting enzyme (TACE), sequence (P78536 215-824, species assumed): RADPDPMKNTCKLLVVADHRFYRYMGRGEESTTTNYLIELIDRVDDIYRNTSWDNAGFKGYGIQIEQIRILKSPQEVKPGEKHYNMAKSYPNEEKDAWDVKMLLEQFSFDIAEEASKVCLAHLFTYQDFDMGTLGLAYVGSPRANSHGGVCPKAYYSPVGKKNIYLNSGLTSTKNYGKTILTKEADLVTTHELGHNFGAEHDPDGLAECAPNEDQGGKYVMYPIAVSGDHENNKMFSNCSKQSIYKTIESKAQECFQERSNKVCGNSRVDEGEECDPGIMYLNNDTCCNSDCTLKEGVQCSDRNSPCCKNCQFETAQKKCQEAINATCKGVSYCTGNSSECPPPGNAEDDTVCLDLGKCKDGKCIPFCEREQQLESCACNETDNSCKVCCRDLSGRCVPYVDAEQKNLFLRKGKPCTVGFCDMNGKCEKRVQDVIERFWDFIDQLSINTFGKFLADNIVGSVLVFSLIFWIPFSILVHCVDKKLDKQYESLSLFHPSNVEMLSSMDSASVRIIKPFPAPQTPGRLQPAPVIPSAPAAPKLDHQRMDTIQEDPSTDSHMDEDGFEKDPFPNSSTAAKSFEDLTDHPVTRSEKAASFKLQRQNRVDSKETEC

[2] = Table 10, read-out: MMP-13 IC50

pIC50 (MMP-1) | pIC50 (MMP-9) | pIC50 (MMP-13; read-out: MMP-13 IC50) | pIC50 [1] | Compound | other results
6.32 | 7.37 | 7.85 | 7.64 | CC#CCOc1ccc(S(=O)(=O)N(C)C(C(=O)NO)c2ccc(OC)cc2)cc1 (stereo not shown) [Example 178, 2-[{[4-(2-Butynyloxy)phenyl]sulfonyl}(methyl)amino]-N-hydroxy-2-(4-methoxyphenyl)acetamide] | –
6.25 | 7.49 | 7.68 | 7.51 | CC#CCOc1ccc(S(=O)(=O)N(C)C(C(=O)NO)c2ccc(OCCN3CCNCC3)cc2)cc1 (stereo not shown) [Example 186, 2-[{[4-(2-butynyloxy)phenyl]sulfonyl}(methyl)amino]-N-hydroxy-2-{4-[2-(1-piperazinyl)ethoxy]phenyl}acetamide] | –
5.61 | 6.53 | 6.92 | 6.64 | CC#CCOc1ccc(S(=O)(=O)N(C)[C@@H](C(=O)NO)c2ccc(O[C@H]3CCN(C(=O)OC(C)(C)C)C3)cc2)cc1 [Example 189, tert-Butyl(3S)-3-{4-[(1R)-1-[{[4-(2-butynyloxy)phenyl]sulfonyl}(methyl)amino]-2-(hydroxyamino)-2-oxoethyl]phenoxy}-1-pyrrolidinecarboxylate] | –
6.26 | 7.54 | 7.96 | 7.28 | CC#CCOc1ccc(S(=O)(=O)N(C)C(C(=O)NO)c2ccc(OCCN3CCOCC3)cc2)cc1 (stereo not shown) [Example 179, 2-[{[4-(2-Butynyloxy)phenyl]sulfonyl}(methyl)amino]-N-hydroxy-2-{4-[2-(4-morpholinyl)ethoxy]phenyl}acetamide] | –
6.95 | 7.92 | 8.40 | 8.00 | CC#CCOc1ccc(S(=O)(=O)N2CCN(C(=O)c3ccccc3)CCC2C(=O)NO)cc1 (stereo not shown) [Example 289, 1-Benzoyl-4-{[4-(2-butynyloxy)phenyl]sulfonyl}-N-hydroxy-1,4-diazepane-5-carboxamide] | –
6.19 | 7.59 | 7.62 | 7.80 | CC#CCOc1ccc(S(=O)(=O)N(C)C(C(=O)NO)c2ccc(OCCN)cc2)cc1 (stereo not shown) [Example 181, 2-[4-(2-Aminoethoxy)phenyl]-2-[{[4-(2-butynyloxy)phenyl]sulfonyl}(methyl)amino]-N-hydroxyacetamide] | –
6.08 | 7.28 | 7.57 | 6.51 | CC#CCOc1ccc(S(=O)(=O)N(C)C(C(=O)NO)c2ccc(OCCN3CCN(C(=O)OC(C)(C)C)CC3)cc2)cc1 (stereo not shown) [Example 185, tert-Butyl 4-(2-{4-[1-[{[4-(2-Butynyloxy)phenyl]sulfonyl}(methyl)amino]-2-(hydroxyamino)-2-oxoethyl]phenoxy}ethyl)-1-piperazinecarboxylate] | –
6.31 | 7.66 | 7.82 | 7.80 | CC#CCOc1ccc(S(=O)(=O)N(C)C(C(=O)NO)c2ccc(OCCN(C)C)cc2)cc1 (stereo not shown) [Example 182, 2-[{[4-(2-Butynyloxy)phenyl]sulfonyl}(methyl)amino]-2-{4-[2-(dimethylamino)ethoxy]phenyl}-N-hydroxyacetamide] | –
5.52 | 5.75 | 6.07 | 7.70 | CC#CCOc1ccc(S(=O)(=O)N2CSC(C)(C)[C@@H]2C(=O)NO)cc1 [Example 286, (4S)-3-{[4-(2-Butynyloxy)phenyl]sulfonyl}-N-hydroxy-5,5-dimethyl-1,3-thiazolidine-4-carboxamide] | –
~5.00 | 6.29 | 6.75 | 7.82 | CC#CCOc1ccc(S(=O)(=O)N[C@@H](C(=O)NO)c2ccc(OCCN)cc2)cc1 [Example 200, (2R)-2-[4-(2-Aminoethoxy)phenyl]-2-({[4-(2-butynyloxy)phenyl]sulfonyl}amino)-N-hydroxyethanamide] | –

More lines, now with the values behind:

Compound | pIC50 (MMP-1) | pIC50 (MMP-9) | pIC50 (MMP-13; read-out: MMP-13 IC50) | pIC50 [1] | other results
CC1(C)SCCN(S(=O)(=O)c2ccc(OCC#CCCCN)cc2)[C@H]1C(=O)NO [Example 251, (3S)-4-({4-[(6-Amino-2-hexynyl)oxy]phenyl}sulfonyl)-N-hydroxy-2,2-dimethyl-3-thiomorpholine Carboxamide] | – | – | – | – | pIC50 (MMP-1; Table 10): 6.65; pIC50 (MMP-9; Table 10): 7.55; pIC50 (MMP-13; [2]): 8.06; pIC50 ([1]; Table 10): 7.55
CC#CCOc1ccc(S(=O)(=O)N(CCCN2CCN(C)CC2)C(C(=O)NO)C(C)C)cc1 (stereo not shown) [Example 120, 2-{{[4-(2-Butynyloxy)phenyl]sulfonyl}[3-(4-methyl-1-piperazinyl)propyl]amino}-N-hydroxy-3-methylbutanamide Hydrochloride] | 6.95 | 6.68 | 6.79 | 6.83 | –
CC#CCOc1ccc(S(=O)(=O)NC(C(=O)NO)c2ccc(O)cc2)cc1 (stereo not shown) [Example 176, 2-({[4-(2-Butynyloxy)phenyl]sulfonyl}amino)-N-hydroxy-2-(4-hydroxyphenyl)acetamide] | ~5.00 | 6.05 | 6.99 | 8.40 | –
CC#CCOc1ccc(S(=O)(=O)N2CCN(C(=O)CNC(=O)OC(C)(C)C)CC2C(=O)NO)cc1 (stereo not shown) [Example 229, {2-[4-(4-but-2-ynyloxy-Benzenesulfonyl)-3-hydroxycarbamoyl-piperazin-1-yl]-2-oxo-ethyl}-carbamic Acid tert-Butyl Ester] | 6.00 | 6.49 | 7.07 | 7.19 | –
CC#CCOc1ccc(S(=O)(=O)N2CCCN(C(=O)c3ccccc3)CC2C(=O)NO)cc1 (stereo not shown) [Example 49, 4-Benzoyl-1-(4-but-2-ynyloxy-benzenesulfonyl)-[1,4]diazepane-2-carboxylic Acid Hydroxyamide] | 6.44 | 7.12 | 7.19 | 7.77 | –
CC#CCOc1ccc(S(=O)(=O)N2C[C@H](C)SC(C)(C)[C@@H]2C(=O)NO)cc1 [Example 272, (3S,6S)-4-{[4-(2-Butynyloxy)phenyl]sulfonyl}-N-hydroxy-2,2,6-trimethyl-3-thiomorpholinecarboxamide] | – | – | – | – | pIC50 (MMP-1; Table 11): 8.11; pIC50 (MMP-9; Table 11): 6.78; pIC50 (MMP-13; Table 11, read-out: MMP-13 IC50): 8.06; pIC50 ([1]; Table 11): 7.62
CC#CCOc1ccc(S(=O)(=O)N(CCCN(CC)CC)C(C(=O)NO)C(C)C)cc1 (stereo not shown) [Example 118, 2-{{[4-(2-Butynyloxy)phenyl]sulfonyl}[3-(diethylamino)propyl]amino}-N-hydroxy-3-methylbutanamide] | 6.92 | 7.07 | 7.35 | 6.81 | –
CC#CCOc1ccc(S(=O)(=O)N(CCCc2ccccc2)C(C(=O)NO)C(C)C)cc1 (stereo not shown) [Example 111, 2-[(4-but-2-ynyloxy-Benzenesulfonyl)-(3-phenyl-propyl)-amino]-N-hydroxy-3-methyl-butyramide] | 6.51 | 5.85 | 6.52 | 6.32 | –
CC#CCOc1ccc(S(=O)(=O)N2CCN(C(=O)N(C(C)C)C(C)C)CC2C(=O)NO)cc1 (stereo not shown) [Example 218, 4-(4-but-2-ynyloxy-Benzenesulfonyl)-piperazine-1,3-dicarboxylic Acid 1-Diisopropylamide 3-Hydroxyamide] | 5.48 | 6.09 | 6.67 | 7.31 | –
CC#CCOc1ccc(S(=O)(=O)N2CCN(C(=O)N3CCCC3)CC2C(=O)NO)cc1 (stereo not shown) [Example 217, 1-(4-but-2-ynyloxy-Benzenesulfonyl)-4-(pyrrolidine-1-carbonyl)-piperazine-2-carboxylic Acid Hydroxyamide] | 5.90 | 6.68 | 7.08 | 7.55 | –
CC#CCOc1ccc(S(=O)(=O)N(CCCCN2CCN(C)CC2)C(C(=O)NO)C(C)C)cc1 (stereo not shown) [Example 122, 2-{{[4-(2-Butynyloxy)phenyl]sulfonyl}[4-(4-methyl-1-piperazinyl)butyl]amino}-N-hydroxy-3-methylbutanamide] | 7.07 | 6.87 | 7.30 | 6.89 | –
CC#CCOc1ccc(S(=O)(=O)N2Cc3ccccc3CC2C(=O)NO)cc1 (stereo not shown) [Example 41, 2-(4-but-2-ynyloxy-Benzenesulfonyl)-1,2,3,4-tetrahydro-isoquinoline-3-carboxylic Acid Hydroxyamide] | 6.92 | 7.62 | 8.00 | 8.15 | –
CC#CCOc1ccc(S(=O)(=O)N2CCN(C(=O)CC)CC2C(=O)NO)cc1 (stereo not shown) [Example 225, 1-(4-but-2-ynyloxy-Benzenesulfonyl)-4-propionyl-piperazine-2-carboxylic Acid Hydroxyamide] | 6.00 | 6.14 | 6.64 | 7.77 | –
CC1(C)SCCN(S(=O)(=O)c2ccc(OCC#CCCO)cc2)C1C(=O)NO (stereo not shown) [Example 244, N-Hydroxy-4-({4-[(5-hydroxy-2-pentynyl)oxy]phenyl}sulfonyl)-2,2-dimethyl-3-thiomorpholine Carboxamide] | – | – | – | – | pIC50 (MMP-1; Table 10): 7.46; pIC50 (MMP-9; Table 10): 7.14; pIC50 (MMP-13; [2]): 7.85; pIC50 ([1]; Table 10): 7.21
CC#CCOc1ccc(S(=O)(=O)N2CCN(Cc3cccnc3)CC2C(=O)NO)cc1 (stereo not shown) [Example 234, 1-(4-but-2-ynyloxy-Benzenesulfonyl)-4-pyridin-3-ylmethyl-piperazine-2-carboxylic Acid Hydroxyamide] | 5.50 | 6.97 | – | 7.55 | pIC50 (MMP-13; MMP-13 IC50): 7.31
